# Laboratory results from patent publication US20090227619A1, “Harmine derivatives, intermediates used in their preparations, preparation processes and use therefo” (priority 2003, published 2009).
# Values joined by “and” are separate entries in the source; they are usually repeats but may differ in a detail not shown here. Identical values can stand only once. Like-named read-outs stand apart in the source and are kept apart here.
# Assays:
# Hela = test: In vitro cytotoxicity, IC50 by MTT method, Hela; type: cell-based; conditions: Homo sapiens
# Method: (§1) Culture medium powder RPMI1640 was dissolved in a proper amount of tri-distilled water according to the instruction of the product. […] It was the basic culture solution. The complete culture solution was added with FBS having a final concentration of 10%, 100 U/ml penicillin and 100 µg/ml streptomycin. The solution was fully stirred by a magnetic blender, and the pH of the solution was adjusted to 6.8-7.0. The volume was kept constant. After being filtered and disinfected, the solution was kept into several containers which were sealed and stored at 4° C.
# (§2) The cells were placed in a culture dish followed by the addition of complete culture liquid RPMI1640 and then cultured in a incubator comprising 5% CO2 at 37° C. In the exponential growth phase, the cells grew vigorously. If the culture liquid became yellow, the liquid should be replaced instantly.
# (§3) The cells, at a concentration of 10^5/ml, were inoculated at a 96-pore culture plate. In each pore, 100 μl cells were inoculated. The cells were placed in a CO2 incubator until the cells were in the logarithmic growth phase. The samples to be tested were added according to the preset concentration gradient. For each gradient, the test was conducted at least three times. An equivalent amount of solvent for dissolving the samples was added in the control group. After 48 h of culture, each pore was added 20 μl MTT (5 mg/ml). The cells were cultured at 37° C. for 4 h. After the supernatant was carefully removed, 100 μl DMSO was added in each pore. The plate was agitated for about 10 minutes such that the precipitates were dissolved. After that, OD value was identified with a Microplate Reader at the wavelength of 490 nm. The survival rate of the cells at various concentrations was calculated according to the following formula:
# (§4) Survival rate %=average OD value of the sample group/average OD value of the control group×100%
# (§5) Plots of log survival rate of the cells vs. concentration of the medicament were constructed, and the IC50 value of each sample was calculated according to graphing methods.
# HepG2 = test: In vitro cytotoxicity, IC50 by MTT method, HepG2; type: cell-based, human; conditions: Homo sapiens
# Method: as §1, §2, §3, §4, §5
# Bel-7402 = test: In vitro cytotoxicity, IC50 by MTT method, Bel-7402; type: cell-based; conditions: Homo sapiens, Bel-7402
# Method: as §1, §2, §3, §4, §5
# NIH3T3 = test: In vitro cytotoxicity, IC50 by MTT method, NIH3T3; type: cell-based; conditions: Mus musculus
# Method: as §1, §2, §3, §4, §5
# Lovo = test: In vitro cytotoxicity, IC50 by MTT method, Lovo; type: cell-based; conditions: Homo sapiens
# Method: as §1, §2, §3, §4, §5
# BGC-823 = test: In vitro cytotoxicity, IC50 by MTT method, BGC-823; type: cell-based; conditions: Homo sapiens, BGC-823
# Method: as §1, §2, §3, §4, §5
# PLA-801 = test: In vitro cytotoxicity, IC50 by MTT method, PLA-801; type: cell-based
# Method: as §1, §2, §3, §4, §5
# [1] = Hela cell strain, read-out: IC50 Hela
# [2] = HepG2 cell strain, read-out: IC50 HepG2
# [3] = Bel7402 cell strain, read-out: IC50 Bel7402
# [4] = NIH3T3 cell strain, read-out: IC50 NIH3T3
# [5] = Lovo cell strain, read-out: IC50 Lovo
# [6] = BGC823 cell strain, read-out: IC50 BGC823
# [7] = PLA-801 cell strain, read-out: IC50 PLA-801
SMILES,"IC50 (Hela; Hela, MTT, read-out: IC50) [µM]","IC50 (HepG2; HepG2, MTT, read-out: IC50) [µM]","IC50 (Bel-7402; BeI7402, MTT, read-out: IC50) [µM]","IC50 (NIH3T3; NIH3T3, MTT, read-out: IC50) [µM]","IC50 (Lovo; Lovo, MTT, read-out: IC50) [µM]","IC50 (BGC-823; BGC823, MTT, read-out: IC50) [µM]","IC50 (PLA-801; PLA-801, MTT, read-out: IC50) [µM]",melting point,IC50 (Hela; [1]) [µM],IC50 (HepG2; [2]) [µM],IC50 (Bel-7402; [3]) [µM],IC50 (NIH3T3; [4]) [µM],IC50 (Lovo; [5]) [µM],IC50 (BGC-823; [6]) [µM],IC50 (PLA-801; [7]) [µM]
"CCNC1(C(N)=O)C=C2C(=Nc3ccccc32)C=N1 (stereo not drawn) [Compound 19, 3-ethylamino-β-carboline-3-formamide]",90,80,160,200,100,80,140,233 to 236 °C,–,–,–,–,–,–,–
"COC(=O)Nc1cc2c(cn1)[nH]c1ccccc12 [Compound 22, 3-[(methoxycarbonyl)amino]-β-carboline]",170,230,130,320,160,210,200,180 to 182 °C,–,–,–,–,–,–,–
"CCOC(=O)Nc1cc2c(cn1)[nH]c1ccccc12 [Compound 23, 3-[(ethoxycarbonyl)amino]-β-carboline]",> 3000,> 3000,> 3000,> 3000,> 3000,> 3000,2160,221 to 223 °C,–,–,–,–,–,–,–
"OCc1cc2c(cn1)[nH]c1ccccc12 [Compound 24, 3-hydroxymethyl-β-carboline]",620,580,740,360,490,780,1080,226 to 228 °C,–,–,–,–,–,–,–
"CC(=O)COc1cc2c(cn1)[nH]c1ccccc12 [Compound 25, 3-acetylmethoxy-β-carboline]",780,1130,590,310,250,640,780,131 to 132 °C,–,–,–,–,–,–,–
"CCCCn1c2ccccc2c2cc(C(=O)OC)ncc21 [Compound 28, methyl 9-n-butyl-β-carboline-3-carboxylate]",–,–,–,–,–,–,–,181 to 183 °C,290,460,430,80,170,310,140
"COC(=O)c1cc2c3ccccc3n(Cc3ccccc3)c2cn1 [Compound 29, methyl 9-benzyl-β-carboline-3-carboxylate]",–,–,–,–,–,–,–,187 to 188 °C,120,1770,60,360,310,950,480
"CCOC(=O)c1cc2c3ccccc3n(C)c2cn1 [Compound 30, ethyl 9-methyl-β-carboline-3-carboxylate]",–,–,–,–,–,–,–,139 to 140 °C,180,150,140,100,100,150,120
"CCCCn1c2ccccc2c2cc(C(=O)OCC)ncc21 [Compound 32, ethyl 9-butyl-β-carboline-3-carboxylate]",–,–,–,–,–,–,–,76 to 77 °C,490,480,780,60,170,760,70
"Cn1c2ccccc2c2cc(C(=O)O)ncc21 [Compound 34, 9-methyl-β-carboline-3-carboxylic acid]",–,–,–,–,–,–,–,267 to 269 °C,90,150,330,130,90,130,270
"CCn1c2ccccc2c2cc(C(=O)O)ncc21 [Compound 35, 9-ethyl-β-carboline-3-carboxylic acid]",–,–,–,–,–,–,–,201 to 202 °C,180,180,230,140,60,160,210
"CCCCOC(=O)c1cc2c3ccccc3n(C)c2cn1 [Compound 38, butyl 9-methyl-β-carboline-3-carboxylate]",–,–,–,–,–,–,–,235 to 238 °C,> 3000,1610,> 3000,> 3000,2520,> 3000,> 3000
"CCCCOC(=O)c1cc2c3ccccc3n(CCCC)c2cn1 [Compound 40, butyl 9-butyl-β-carboline-3-carboxylate]",–,–,–,–,–,–,–,94 to 95 °C,950,1080,1080,50,40,70,2120
"CCCCOC(=O)c1cc2c3ccccc3n(Cc3ccccc3)c2cn1 [Compound 41, butyl 9-benzyl-β-carboline-3-carboxylate]",–,–,–,–,–,–,–,105 to 106 °C and 104 to 105 °C,> 3000,> 3000,> 3000,> 3000,1080,> 3000,990
"O=C(OCc1ccccc1)c1cc2c3ccccc3n(Cc3ccccc3)c2cn1 [Compound 44, benzyl 9-benzyl-β-carboline-3-carboxylate]",–,–,–,–,–,–,–,169 to 170 °C,> 3000,> 3000,> 3000,> 3000,> 3000,> 3000,> 3000
"CCOC(=O)c1cc2c3ccccc3n(CCCc3ccccc3)c2cn1 [Compound 45, ethyl 9-phenylpropyl-β-carboline-3-carboxylate]",–,–,–,–,–,–,–,140 to 142 °C,> 3000,> 3000,387,> 3000,> 3000,> 3000,> 3000
"CCn1c2ccccc2c2cc(NC(=O)OC)ncc21 [Compound 53, 9-ethyl-3-[(methoxycarbonyl)amino]-β-carboline]",–,–,–,–,–,–,–,213 to 214 °C,> 3000,> 3000,> 3000,> 3000,> 3000,> 3000,> 3000
"CCOC(=O)Nc1cc2c3ccccc3n(CC)c2cn1 [Compound 54, 3-[(ethoxycarbonyl)amino]-9-ethyl-β-carboline]",–,–,–,–,–,–,–,217 to 218 °C,> 3000,> 3000,1680,> 3000,> 3000,> 3000,> 3000
"CCOC(=O)c1cc2c3ccccc3n(C)c2c(C)n1 [Compound 56, ethyl 1,9-dimethyl-β-carboline-3-carboxylate]",–,–,–,–,–,–,–,141 to 142 °C,110,100,490,60,50,130,140
"CCOC(=O)c1cc2c3ccccc3n(CC)c2c(C)n1 [Compound 57, ethyl 9-ethyl-1-methyl-β-carboline-3-carboxylate]",–,–,–,–,–,–,–,96 to 98 °C,60,80,880,60,50,70,160
"CCOC(=O)c1cc2c3ccccc3n(Cc3ccccc3)c2c(C)n1 [Compound 58, ethyl 9-benzyl-1-methyl-β-carboline-3-carboxylate]",–,–,–,–,–,–,–,155 to 156 °C,250,2000,210,1820,170,2080,1390
"CCOC(=O)c1cc2c3ccccc3n(CCCc3ccccc3)c2c(C)n1 [Compound 59, ethyl 9-phenylpropyl-1-methyl-β-carboline-3-carboxylate]",–,–,–,–,–,–,–,101 to 102 °C,40,40,180,30,20,40,110
